Experimental data as given in PubChem BioAssay AID330 (DTP/NCI, 2004).
Values joined by “and” are separate entries in the source; they are usually repeats but may differ in a detail not shown here. Equal values may be shown once. Inconclusive results and toxic doses are left out.

Tested on: P388 leukemia ip, CD2F1 mice, survival T/C
Assay: NCI In Vivo Anticancer Drug Screen. Data for tumor model P388 Leukemia (intraperitoneal) in CD2F1 (CDF1) mice
Settings: endpoint: median survival time, higher = longer survival
Procedure, shortened: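 Mice carrying the transplanted tumor received test compound or vehicle. Survival was recorded in each group, and the value is the treated-group measurement divided by that of the vehicle-treated control group.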

[1] = dose: 50.0 mg/kg/injection, schedule: Q01DX005 (ip), vehicle: saline with Tween-80
[2] = dose: 100.0 mg/kg/injection, schedule: Q01DX005 (ip), vehicle: saline with Tween-80
[3] = dose: 200.0 mg/kg/injection, schedule: Q01DX005 (ip), vehicle: saline with Tween-80
[4] = dose: 100.0 mg/kg/injection, schedule: Q04DX003 (ip), vehicle: saline
[5] = dose: 200.0 mg/kg/injection, schedule: Q04DX003 (ip), vehicle: saline
[6] = dose: 400.0 mg/kg/injection, schedule: Q04DX003 (ip), vehicle: saline
[7] = dose: 60.0 mg/kg/injection, schedule: Q01DX005 (ip), vehicle: saline with Tween-80
[8] = dose: 120.0 mg/kg/injection, schedule: Q01DX005 (ip), vehicle: saline with Tween-80
[9] = dose: 240.0 mg/kg/injection, schedule: Q01DX005 (ip), vehicle: saline with Tween-80
[10] = dose: 50.0 mg/kg/injection, schedule: Q01DX009 (ip), vehicle: saline with Tween-80
[11] = dose: 100.0 mg/kg/injection, schedule: Q01DX009 (ip), vehicle: saline with Tween-80
[12] = dose: 200.0 mg/kg/injection, schedule: Q01DX009 (ip), vehicle: saline with Tween-80
[13] = dose: 50.0 mg/kg/injection, schedule: Q01DX005 (ip), vehicle: Klucel (hydroxypropylcellulose) (HPC)
[14] = dose: 100.0 mg/kg/injection, schedule: Q01DX005 (ip), vehicle: Klucel (hydroxypropylcellulose) (HPC)
[15] = dose: 200.0 mg/kg/injection, schedule: Q01DX005 (ip), vehicle: Klucel (hydroxypropylcellulose) (HPC)

`COC(=O)C12CCC(C(=O)OC)(CC1)n1c(=O)n(-c3ccccc3)c(=O)n12` was tested, and the T/C [1] was 102 % of control, the T/C [2] was 102 % of control and the T/C [3] was 102 % of control.
`Cc1nnc2c3[nH]c4ccccc4c3cnn12` was tested, and the T/C (dose: 60.0 mg/kg/injection, schedule: Q01DX005 (ip), vehicle: saline) was 104 % of control, the T/C (dose: 120.0 mg/kg/injection, schedule: Q01DX005 (ip), vehicle: saline) was 95 % of control and the T/C (dose: 240.0 mg/kg/injection, schedule: Q01DX005 (ip), vehicle: saline) was 103 % of control.
In the case of `CC(C(=O)O)[As](=O)(O)O` (configuration not stated), the T/C [4] is reported as 102 % of control, the T/C [5] is reported as 99 % of control and the T/C [6] is reported as 98 % of control.
`O=C1Sc2ccccc2C(=O)N2CCCC12` (configuration not stated) was tested, and the T/C [7] was 97 % of control, the T/C [8] was 99 % of control and the T/C [9] was 100 % of control.
With `COc1cccc(CSC(C(=O)O)c2ccccc2)c1` (configuration not stated) the T/C [10] was 107 % of control, the T/C [11] was 101 % of control and the T/C [12] was 117 % of control.
With `CN1CCCN(C)C1c1cc([N+](=O)[O-])ccc1O` the T/C (dose: 6.25 mg/kg/injection, schedule: Q01DX009 (ip), vehicle: saline sonified) was 100 % of control, the T/C (dose: 12.5 mg/kg/injection, schedule: Q01DX009 (ip), vehicle: saline sonified) was 100 % of control and the T/C (dose: 25.0 mg/kg/injection, schedule: Q01DX009 (ip), vehicle: saline sonified) was 100 % of control.
For `CCOC(=O)COc1ccc(/C=C(\C)[N+](=O)[O-])c2ccccc12`, the T/C [10] was 99 % of control, the T/C [11] was 91 % of control and the T/C [12] was 100 % of control.
`O=C(NO)c1coc2ccccc2c1=O` was tested, and the T/C [7] was 101 % of control and the T/C [8] was 103 % of control.
For `Cc1ccc2no[n+]([O-])c2c1[N+](=O)[O-]`, the T/C [1] was 118 % of control and 119 % of control, the T/C [2] was 121 % of control and the T/C [3] was 150 % of control.
`COc1ccc(/C=C/C(=O)c2c(N)n(C)c(=O)n(C)c2=O)cc1` was tested, and the T/C [13] was 91 % of control and the T/C [14] was 88 % of control.
In the case of `Cc1cc(=O)c2c(C)cccc2[nH]1`, the T/C (dose: 2.75 mg/kg/injection, schedule: Q01DX009 (ip), vehicle: saline with Tween-80) is reported as 100 % of control, the T/C (dose: 4.13 mg/kg/injection, schedule: Q01DX009 (ip), vehicle: saline with Tween-80) is reported as 118 % of control and the T/C (dose: 6.25 mg/kg/injection, schedule: Q01DX009 (ip), vehicle: saline with Tween-80) is reported as 100 % of control. For the same molecule, the T/C (dose: 9.38 mg/kg/injection, schedule: Q01DX009 (ip), vehicle: saline with Tween-80) was 100 % of control.
With `O=C1c2ccccc2C(=O)N1CCCC[P+](c1ccccc1)(c1ccccc1)c1ccccc1` the T/C (dose: 1.5 mg/kg/injection, schedule: Q01DX009 (ip), vehicle: other) was 112 % of control, the T/C (dose: 3.0 mg/kg/injection, schedule: Q01DX009 (ip), vehicle: other) was 116 % of control and the T/C (dose: 6.0 mg/kg/injection, schedule: Q01DX009 (ip), vehicle: other) was 116 % of control. For the same molecule, the T/C (dose: 9.0 mg/kg/injection, schedule: Q01DX009 (ip), vehicle: other) was 121 % of control.
For `Clc1cc2c(c(CSC3=NCN(CC4CC4)CN3)c1)OCOC2`, the T/C (dose: 15.0 mg/kg/injection, schedule: Q01DX005 (ip), vehicle: Klucel (hydroxypropylcellulose) (HPC)) was 99 % of control, the T/C (dose: 30.0 mg/kg/injection, schedule: Q01DX005 (ip), vehicle: Klucel (hydroxypropylcellulose) (HPC)) was 100 % of control and the T/C (dose: 60.0 mg/kg/injection, schedule: Q01DX005 (ip), vehicle: Klucel (hydroxypropylcellulose) (HPC)) was 98 % of control and 101 % of control.
In the case of `CC12C(=O)C(Br)C1CC2S(=O)(=O)O` (configuration not stated), the T/C (dose: 25.0 mg/kg/injection, schedule: Q04DX002 (ip), vehicle: saline) is reported as 97 % of control, the T/C (dose: 50.0 mg/kg/injection, schedule: Q04DX002 (ip), vehicle: saline) is reported as 95 % of control and the T/C (dose: 100.0 mg/kg/injection, schedule: Q04DX002 (ip), vehicle: saline) is reported as 98 % of control. The T/C (dose: 200.0 mg/kg/injection, schedule: Q04DX002 (ip), vehicle: saline with Tween-80) was 96 % of control and the T/C (dose: 400.0 mg/kg/injection, schedule: Q04DX002 (ip), vehicle: saline with Tween-80) was 99 % of control.
`COc1cc(C(C)c2cc3c(cc2OCC(C)=O)OCO3)cc(OC)c1OC` (configuration not stated) was tested, and the T/C [7] was 105 % of control, the T/C [8] was 97 % of control and the T/C [9] was 106 % of control.
For `CCn1c(C)nc2ncn(-c3ccccc3)c2c1=O`, the T/C [13] was 100 % of control, the T/C [14] was 100 % of control and the T/C [15] was 98 % of control.
In the case of `CC1C(=O)CC2CCC1N2C(=O)O` (configuration not stated), the T/C (dose: 50.0 mg/kg/injection, schedule: Q01DX005 (ip), vehicle: saline) is reported as 96 % of control, the T/C (dose: 100.0 mg/kg/injection, schedule: Q01DX005 (ip), vehicle: saline) is reported as 96 % of control and the T/C (dose: 200.0 mg/kg/injection, schedule: Q01DX005 (ip), vehicle: saline) is reported as 94 % of control.
In the case of `Cc1cc(Cl)nc2ccc([N+](=O)[O-])cc12`, the T/C [4] is reported as 92 % of control, the T/C [5] is reported as 94 % of control and the T/C [6] is reported as 91 % of control.
For `CO[C@@]12[C@@H]3N[C@@H]3CN1C1=C(C(=O)C(N3CCCC3)=C(C)C1=O)[C@@H]2COC(N)=O`, the T/C (dose: 0.78 mg/kg/injection, schedule: Q01DX005 (ip), vehicle: saline with Tween-80) was 193 % of control, the T/C (dose: 3.75 mg/kg/injection, schedule: Q01DX005 (ip), vehicle: saline with Tween-80) was 186 % of control and the T/C (dose: 10.4 mg/kg/injection, schedule: Q01DX005 (ip), vehicle: saline with Tween-80) was 214 % of control. For the same molecule, the T/C (dose: 17.4 mg/kg/injection, schedule: Q01DX005 (ip), vehicle: saline with Tween-80) was 214 % of control and the T/C (dose: 25.0 mg/kg/injection, schedule: Q01DX005 (ip), vehicle: saline with Tween-80) was 87 % of control.
In the case of `OC1(c2ccccc2)C(c2ccccc2)=C(c2ccccc2)C(c2ccc(CCCCCCCCc3ccc(C4=C(c5ccccc5)C(O)(c5ccccc5)C(c5ccccc5)=C4c4ccccc4)cc3)cc2)=C1c1ccccc1` (configuration not stated), the T/C (dose: 100.0 mg/kg/injection, schedule: Q01DX001 (ip), vehicle: Klucel (hydroxypropylcellulose) (HPC)) is reported as 86 % of control and the T/C (dose: 200.0 mg/kg/injection, schedule: Q01DX001 (ip), vehicle: Klucel (hydroxypropylcellulose) (HPC)) is reported as 89 % of control.
`CN(C)c1nc(N(C)C)nc(N(C)C=O)n1` was tested, and the T/C (dose: 100.0 mg/kg/injection, schedule: Q01DX001 (ip), vehicle: saline) was 99 % of control, the T/C (dose: 200.0 mg/kg/injection, schedule: Q01DX001 (ip), vehicle: saline) was 97 % of control and the T/C (dose: 400.0 mg/kg/injection, schedule: Q01DX001 (ip), vehicle: saline) was 100 % of control.
With `O=C(NCCCC(CCCNC(=O)c1ccccc1)(C(=O)O)C(=O)O)c1ccccc1` the T/C [13] was 106 % of control, the T/C [14] was 109 % of control and the T/C [15] was 104 % of control.
With `C=C(C(=O)OC)C1C=CCCCC1` (configuration not stated) the T/C (dose: 100.0 mg/kg/injection, schedule: Q01DX001 (ip), vehicle: saline with Tween-80) was 114 % of control, the T/C (dose: 200.0 mg/kg/injection, schedule: Q01DX001 (ip), vehicle: saline with Tween-80) was 113 % of control and the T/C (dose: 400.0 mg/kg/injection, schedule: Q01DX001 (ip), vehicle: saline with Tween-80) was 105 % of control.
With `O=C(OCC1OC(O)(COC(=O)c2ccccc2)C(OC(=O)c2ccccc2)C1OC(=O)c1ccccc1)c1ccccc1` (configuration not stated) the T/C (dose: 12.5 mg/kg/injection, schedule: Q01DX005 (ip), vehicle: Klucel (hydroxypropylcellulose) (HPC)) was 97 % of control, the T/C (dose: 25.0 mg/kg/injection, schedule: Q01DX005 (ip), vehicle: Klucel (hydroxypropylcellulose) (HPC)) was 98 % of control and the T/C [13] was 90 % of control and 92 % of control.
For `CCCC[C@H]1C(=O)O[C@H](C)[C@H](NC(=O)c2cccc(NC=O)c2O)C(=O)O[C@@H](C)[C@@H]1OC(=O)CC(C)C`, the T/C (dose: 0.12 mg/kg/injection, schedule: Q01DX009 (ip), vehicle: Klucel (hydroxypropylcellulose) (HPC)) was 105 % of control, the T/C (dose: 0.25 mg/kg/injection, schedule: Q01DX009 (ip), vehicle: Klucel (hydroxypropylcellulose) (HPC)) was 105 % of control and the T/C (dose: 0.5 mg/kg/injection, schedule: Q01DX009 (ip), vehicle: Klucel (hydroxypropylcellulose) (HPC)) was 109 % of control. For the same molecule, the T/C (dose: 1.0 mg/kg/injection, schedule: Q01DX009 (ip), vehicle: Klucel (hydroxypropylcellulose) (HPC)) was 119 % of control.
`O=C1C=CC(=O)C2C1CC=C1CCCCC12` (configuration not stated) was tested, and the T/C (dose: 7.5 mg/kg/injection, schedule: Q01DX009 (ip), vehicle: saline with Tween-80) was 106 % of control, the T/C (dose: 15.0 mg/kg/injection, schedule: Q01DX009 (ip), vehicle: saline with Tween-80) was 109 % of control and the T/C (dose: 30.0 mg/kg/injection, schedule: Q01DX009 (ip), vehicle: saline with Tween-80) was 103 % of control.
